Results reported in publication PMC6014988, “Precision therapeutic targeting of human cancer cell motility” (Nature Communications, 2018).
Several values for one entry are separate records, joined by “and”; a condition that tells them apart may be missing. Equal entries are not always repeated. Entries after “also recorded” stand apart in the source; their conditions may differ.

What was measured:
estrogen receptor (ER) = experiment: Induction of estrogen-responsive genes in MCF-7 cells; assay type: cell-based, human
Method: RNA was isolated and qRT-PCR was performed as described by us[43], analyzed by the 2^−ΔΔCt method, using primer/probes sets (ABI), HSP90α (Hs00743767_sH), HSP90β (Hs00427665_g1), trefoil factor 1 (TFF1; Hs00907239_m1), cathepsin D (CTSD; Hs00157205_m1), progesterone receptor (PGR; Hs01556702_m1), and GAPDH (Hs99999905_m1). Assays were repeated, each in replicates of N = 2. […]
panel. KBU2046 was submitted to the Developmental Therapeutics Program (DTP) of the US National Cancer Institute (NCI), underwent initial screening across the NCI 60 cell line panel per DTP protocol 1, and the resultant COMPARE diagram is depicted above. Based upon its lack of […]
Supplementary Figure 3. […] Estrogen […]
receptor positive MCF-7 cells were cultured under hormone free conditions transfected pERE-Luc or empty control vector, along with constitutive active β-gal, grown under estrogen-free conditions, and pre-treated for 24 hours with nanomolar concentrations of estradiol, or with micromolar concentrations of genistein or KBU2046, as indicated. Luciferase activity was measured, normalized to that of β-gal, and values expressed as the percent of untreated vector control cells. Values are the mean±SD of a single experiment, with similar results seen in a separate repeat experiment, both in replicates of N=2.
(also on this page, place not known: luciferase/B-gal activity, % untreated vector control) […]

[1] = system: human PCa PC3-M cell orthotopic implants; experiment: Murine orthotopic implantation model of human PCa, lung metastasis; assay type: in vivo, mouse
Method: Prostate cancer: orthotopic implantation: Orthotopic implantation of human GFP-PC3-M PCa cells into 6–8 week male Balb/c athymic mice (Charles River Laboratories) and quantification of distant metastasis was performed as described by us[37]. Treatment with KBU2046, incorporated into Harlan Teklad 2016S® chow, began 1 week prior to implantation. Animals were excluded from the analysis if they died and/or met the criteria for killing in the 7 day post-operative period. Experimental groups were randomly assigned to cages prior to the initiation of the study. Metastasis were scored in a blinded fashion. Specifically, animals were assigned an ID number, resultant histologic slides contained a separate pathological ID number, slides were scored in a random fashion, after which the two numbers were linked up.

HSP90β = target: T1, HSP90β (Homo sapiens, UniProt P08238+Q16543); experiment: In vitro kinase assay, SGK3 phosphorylation of HSP90β; assay type: biochemical
T1 construct: made in house; host or cells: E. coli (HSP90β, CDC37); SGK3 purchased from Thermo Scientific #PV3859

[2] = Single intravenous dose organ function study; assay type: in vivo; conditions: CD1 mice, single iv 15, 75 or 125 mg/kg, day 8 and 14
Description: Supplementary Figure 7. KBU2046 treatment is not associated with systemic off-target effects. For histologic examination of tissue, cohorts of N=5 male 6-8 week old Balb/c athymic […]
KBU2046 as described in manuscript Figure 2a. After 35 days of treatment, the following organs were harvested at necropsy, and stained with H&E (alternative staining methods as indicated): heart, lungs, esophagus, stomach, colon, small intestine, liver (Trichrome staining), kidneys (Trichrome staining), adrenals, bladder, prostate, spleen, pancreas, brain, testes, and bone marrow and peripheral blood (Giemsa staining). Organs were examined for damage using a semi-quantitative histological scoring system, as described 4. […]
except in the livers of both control and treatment mice. Changes in the liver observed in control mice were not increased by KBU2046 treatment. […]
gm/mouse, this translated to 5-7 week old females and 4.5-5.5 week old males. […] On day 8 and 14, all critical organs were weighed, and the following parameters measured in blood: cholesterol, triglycerides, alanine aminotransferase (ALT), aspartate aminotransferase (AST), total bilirubin, glucose, phosphorus, total protein, calcium, blood urea nitrogen (BUN), creatinine, albumin, Na, K, Cl, white blood cells (with differential), red blood cells, hemoglobin, […]

T1 sequence (P08238 whole entry): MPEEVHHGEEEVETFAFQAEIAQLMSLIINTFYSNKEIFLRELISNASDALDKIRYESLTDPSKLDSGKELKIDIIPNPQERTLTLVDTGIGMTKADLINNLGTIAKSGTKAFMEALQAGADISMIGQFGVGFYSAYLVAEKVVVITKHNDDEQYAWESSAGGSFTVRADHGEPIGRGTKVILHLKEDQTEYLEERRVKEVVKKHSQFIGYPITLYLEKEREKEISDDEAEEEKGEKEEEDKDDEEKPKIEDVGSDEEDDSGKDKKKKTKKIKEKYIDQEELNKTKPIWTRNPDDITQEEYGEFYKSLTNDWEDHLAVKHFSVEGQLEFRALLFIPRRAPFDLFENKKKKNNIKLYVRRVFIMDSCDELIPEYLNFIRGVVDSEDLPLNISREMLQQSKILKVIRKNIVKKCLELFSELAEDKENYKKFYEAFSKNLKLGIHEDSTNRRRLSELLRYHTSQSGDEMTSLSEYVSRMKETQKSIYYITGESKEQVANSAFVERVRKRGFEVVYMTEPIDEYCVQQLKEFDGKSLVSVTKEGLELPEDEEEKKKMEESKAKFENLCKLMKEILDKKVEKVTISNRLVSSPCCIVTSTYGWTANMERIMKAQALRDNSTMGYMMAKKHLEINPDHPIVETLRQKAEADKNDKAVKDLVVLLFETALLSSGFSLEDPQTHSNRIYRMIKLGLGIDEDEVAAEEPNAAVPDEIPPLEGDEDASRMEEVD
T1 sequence (Q16543 whole entry): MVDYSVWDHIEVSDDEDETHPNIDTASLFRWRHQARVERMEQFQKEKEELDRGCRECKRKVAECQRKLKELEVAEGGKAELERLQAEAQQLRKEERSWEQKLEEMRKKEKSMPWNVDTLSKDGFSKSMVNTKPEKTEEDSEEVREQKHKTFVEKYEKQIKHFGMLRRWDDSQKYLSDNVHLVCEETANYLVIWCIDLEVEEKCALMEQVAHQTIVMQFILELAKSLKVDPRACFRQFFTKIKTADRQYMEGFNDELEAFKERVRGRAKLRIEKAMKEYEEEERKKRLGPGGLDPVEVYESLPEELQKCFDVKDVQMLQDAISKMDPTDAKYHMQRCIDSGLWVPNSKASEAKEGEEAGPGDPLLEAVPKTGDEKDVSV

Question: For `O=C1c2ccccc2OCC1c1ccc(F)cc1` (racemic) [KBU2046, (±)-3(4-fluorophenyl)chroman-4-one], which “activation of estrogen-responsive genes” value (estrogen receptor (ER)) is on record?
Answer: did not activate estrogen-responsive genes; also recorded: does not activate the estrogen receptor

Question: And the decrease in metastasis ([1]; KBU2046 in chow, dose-dependent)?
Answer: up to 92%

Question: And the suppression of metastasis ([1]; at a plasma concentration of 24 nM)?
Answer: 92% and > 90%

Question: And the primary tumor growth ([1]; tumor weight, mice of Fig. 2a)?
Answer: does not inhibit primary tumor cell growth

Question: What about the “SGK3-mediated phosphorylation of HSP90β” value (HSP90β; HSP90β, CDC37, SGK3) of the same compound?
Answer: phosphorylation was further increased

Question: What about the “SGK3-mediated phosphorylation of HSP90β” value (HSP90β; with MAP3K6 added) of the same compound?
Answer: decreases in the presence of KBU2046

Question: And the “organ weights, clinical chemistry and blood parameters” value [2]?
Answer: No abnormal alterations
